Measurements from PubChem BioAssay (NCI).
Where “and” joins values, the source holds several entries; their conditions need not be identical. Identical values can stand only once.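 Dose response: 5 concentrations. Exposure: 48 h. Format: 96-well plates. Endpoint: linear interpolation; highest concentration if not reached. Here, GI50 denotes the concentration required for 50% inhibition of growth. Definition used: TGI = concentration required for complete inhibition of growth.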

Key:
Experiment in all cases: NCI-60 cell line screen, 48 h
[1] = system: HCT-116 colon
[2] = system: SK-MEL-2 melanoma
[3] = system: SF-295 CNS
[4] = system: HOP-92 NSCLC
[5] = system: SN12C renal
[6] = system: U251 CNS
[7] = system: OVCAR-3 ovarian
[8] = system: 786-0 renal
[9] = system: MALME-3M melanoma
[10] = system: LOX IMVI melanoma

SMILES	GI50 [1]	TGI [1] [µM]	GI50 [2] [µM]	TGI [2] [µM]	GI50 [3]	TGI [3] [µM]	GI50 [4] [µM]	TGI [4]	GI50 [5]	TGI [5] [µM]	GI50 [6]	TGI [6] [µM]	GI50 [7] [µM]	TGI [7]	GI50 [8]	TGI [8] [µM]	GI50 [9]	TGI [9] [µM]	GI50 [10]	TGI [10] [µM]
O=c1ccc2nc(-c3ccccc3)nn(-c3ccccc3)c-2c1	0.79 µM	2.08	2.28	4.45	13 µM	32.1	1.5	2.93 µM	1.77 µM	3.53	5.78 µM	20.4	1.01	2.34 µM	1.84 µM	3.36	0.479 µM	1.67	2.08 µM	4.27
COc1ccc(NC(=O)CC/C(CC(=O)c2ccco2)=N/Nc2ccc([N+](=O)[O-])cc2[N+](=O)[O-])cc1	–	> 100	–	> 100	–	> 100	–	> 100 µM	–	> 100	–	> 100	–	> 100 µM	–	> 100	–	> 100	–	> 100
COc1ccc(C(=O)/C=C/c2ccc(Cl)cc2)cc1S(N)(=O)=O	1.36 µM	2.7	12.4	25.7	3.04 µM	10.2	2.14	5.78 µM	2.72 µM	8.4	1.96 µM	4.27	2.04	4.45 µM	1.74 µM	3.69	5.89 µM	20.2	1.28 µM	2.65
Cc1cc(O)c2c(c1)C[C@@H](O)C1=C2C(=O)c2c(O)ccc(OC3CC(O)C(OC4CC(OC5CCC(OC6CC(O)C(OC7CC(OC8CCC(O)C(C)O8)C(O)C(C)O7)C(C)O6)C(C)O5)C(O)C(C)O4)C(C)O3)c2C1=O (stereo not given in full)	0.38 µM and 0.281 µM	–	0.89	–	1.5 µM and 3.02 µM	–	0.3	0.316 µM and 0.684 µM	0.307 µM and 1.94 µM	–	0.469 µM and 0.306 µM	–	0.223	0.138 µM and 0.765 µM	0.49 µM and 0.28 µM	–	1 µM and 0.197 µM	–	0.295 µM and 0.23 µM	–
COc1ccc(C(=O)c2cc3c(N)c(C(=O)Nc4cccc(Cl)c4)sc3nc2C)cc1	1.45 µM	> 33.3	11.2	> 33.3	1.08 µM	> 33.3	30.7	> 33.3 µM	1.96 µM	> 33.3	1.38 µM	> 33.3	1.01	3.12 µM	2.67 µM	> 33.3	1.28 µM	> 33.3	2.39 µM	> 33.3
O=C(Nc1ccc(Cl)c(Cl)c1)Nc1ccc(Cl)c([N+](=O)[O-])c1	0.813 µM	3.18	1.14	5.5	0.688 µM	2.54	0.66	2.07 µM	1.04 µM	3.94	1.13 µM	4.3	0.889	3.66 µM	1.49 µM	5.21	0.915 µM	4.96	1.03 µM	3.81
NC(=O)C/C=C/CC(N)=O	–	> 100	–	> 100	–	> 100	–	> 100 µM	–	> 100	–	> 100	–	> 100 µM	–	> 100	–	> 100	–	> 100
COc1ccc(C(=O)CC2(O)C(=O)Nc3c(Cl)ccc(Cl)c32)cc1 (stereo not given)	0.72 µM	23.9	2.21	> 44.1	1.35 µM	14.8	1.22	18.4 µM	4.6 µM	> 95.1	2.33 µM	> 62.3	0.701	3.75 µM	6.42 µM	> 100	8.96 µM	> 100	2.72 µM	> 100
Cc1cc(Cl)n2c(nc3ccccc32)c1C#N	0.0393 µM	1.4	0.396	2.25	0.521 µM	4.91	0.494	1.62 µM	0.499 µM	8.33	0.482 µM	3.17	0.583	1.86 µM	0.768 µM	6.48	0.858 µM	2.63	0.26 µM	1.35
Cc1ccc(CCC(=O)Nc2ncc(Cc3cc(Cl)ccc3Cl)s2)o1	0.0696 µM	2.14	0.683	> 58.5	0.176 µM	2.15	2.33	> 45.3 µM	0.489 µM	11.1	0.202 µM	3.39	0.172	1.36 µM	0.692 µM	4.19	0.945 µM	> 100	0.221 µM	–
Cn1cc(-c2ccc3cc(-c4ccc(CC(=O)Nc5cc(C(C)(C)C)nn5C)cc4)cnc3c2)cn1	0.191 µM	> 100	0.138	–	0.307 µM	> 100	0.401	> 100 µM	0.23 µM	> 100	0.236 µM	> 100	0.336	> 100 µM	0.351 µM	> 100	0.146 µM	> 100	0.284 µM	> 100
CN(C)C1(C#N)CCC2(CC1)OCCO2	–	> 100	–	> 100	–	> 100	–	> 100 µM	–	> 100	–	> 100	–	> 100 µM	–	> 100	–	> 100	–	> 100
[O-][n+]1onc2c3nn(-c4ccccc4)nc3ccc21	–	> 100	–	> 100	–	> 100	–	> 100 µM	–	> 100	–	> 100	–	72 µM	–	> 100	–	> 100	–	> 58.3
Cc1c2c(n3c(nc4ccccc43)c1C#N)SCC2	–	> 10	–	> 10	–	> 10	–	> 10 µM	–	> 10	–	> 10	–	> 10 µM	–	> 10	–	> 10	–	> 10
O=C(Cn1ccnc1[N+](=O)[O-])NCCO	–	> 100	–	> 100	–	> 100	–	> 100 µM	–	> 100	–	> 100	–	> 100 µM	–	> 100	–	> 100	–	> 100
